Measurements as given in patent publication EP0726263A2, “Herbicidal (1,3,4)oxadiazoles and thiadiazoles” (American Cyanamid Company, priority 1995, dated 1996).

Key:
Assay type in all cases: in vivo
[1] = test system: Glycine max; experiment: Herbicidal activity, preemergence test; conditions: pre; sprayed onto soil, 800 g of active material per hectare; evaluated 3 weeks after treatment
Outline: (§1)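 Acetone/TRITON X-155 formulation diluted in water, sprayed onto horticultural loam soon after sowing at 800 g active material per hectare in 900 litres per hectare. Visual 0-9 rating of stand, vigor, malformation, size and chlorosis versus untreated sown soil, scored 3 weeks after treatment.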

[2] = test system: Alopecurus myosuroides; experiment: Herbicidal activity, preemergence test; conditions: pre; sprayed onto soil, 800 g of active material per hectare; evaluated 3 weeks after treatment
Outline: as §1

[3] = test system: Hordeum vulgare; experiment: Herbicidal activity, preemergence test; conditions: pre; sprayed onto soil, 800 g of active material per hectare; evaluated 3 weeks after treatment
Outline: as §1

[4] = test system: Gossypium hirsutum; experiment: Herbicidal activity, preemergence test; conditions: pre; sprayed onto soil, 800 g of active material per hectare; evaluated 3 weeks after treatment
Outline: as §1

[5] = test system: Chenopodium album; experiment: Herbicidal activity, preemergence test; conditions: pre; sprayed onto soil, 800 g of active material per hectare; evaluated 3 weeks after treatment
Outline: as §1

[6] = test system: Amaranthus retroflexus; experiment: Herbicidal activity, preemergence test; conditions: pre; sprayed onto soil, 800 g of active material per hectare; evaluated 3 weeks after treatment
Outline: as §1

[7] = test system: Galium aparine; experiment: Herbicidal activity, preemergence test; conditions: pre; sprayed onto soil, 800 g of active material per hectare; evaluated 3 weeks after treatment
Outline: as §1

[8] = test system: Papaver rhoeas; experiment: Herbicidal activity, preemergence test; conditions: pre; sprayed onto soil, 800 g of active material per hectare; evaluated 3 weeks after treatment
Outline: as §1

[9] = test system: Lamium purpureum; experiment: Herbicidal activity, preemergence test; conditions: pre; sprayed onto soil, 800 g of active material per hectare; evaluated 3 weeks after treatment
Outline: as §1

[10] = test system: Stellaria media; experiment: Herbicidal activity, preemergence test; conditions: pre; sprayed onto soil, 800 g of active material per hectare; evaluated 3 weeks after treatment
Outline: as §1

[11] = test system: Abutilon theophrasti; experiment: Herbicidal activity, preemergence test; conditions: pre; sprayed onto soil, 800 g of active material per hectare; evaluated 3 weeks after treatment
Outline: as §1

[12] = test system: Ambrosia artemisifolia; experiment: Herbicidal activity, preemergence test; conditions: pre; sprayed onto soil, 800 g of active material per hectare; evaluated 3 weeks after treatment
Outline: as §1

[13] = test system: Ipomoea hederacea; experiment: Herbicidal activity, preemergence test; conditions: pre; sprayed onto soil, 800 g of active material per hectare; evaluated 3 weeks after treatment
Outline: as §1

[14] = test system: Zea mays; experiment: Herbicidal activity, preemergence test; conditions: pre; sprayed onto soil, 800 g of active material per hectare; evaluated 3 weeks after treatment
Outline: as §1

[15] = test system: Setaria viridis; experiment: Herbicidal activity, preemergence test; conditions: pre; sprayed onto soil, 800 g of active material per hectare; evaluated 3 weeks after treatment
Outline: as §1

[16] = test system: Triticum aestivum; experiment: Herbicidal activity, preemergence test; conditions: pre; sprayed onto soil, 800 g of active material per hectare; evaluated 3 weeks after treatment
Outline: as §1

[17] = test system: Veronica persica; experiment: Herbicidal activity, preemergence test; conditions: pre; sprayed onto soil, 800 g of active material per hectare; evaluated 3 weeks after treatment
Outline: as §1

[18] = test system: Matricaria inodora; experiment: Herbicidal activity, preemergence test; conditions: pre; sprayed onto soil, 800 g of active material per hectare; evaluated 3 weeks after treatment
Outline: as §1

[19] = test system: Glycine max; experiment: Herbicidal activity, postemergence test; conditions: post; sprayed onto seedling plants, 800 g of active material per hectare; evaluated 2 weeks after treatment
Outline: (§2)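 Spray dose 800 g a.i./ha in 900 L/ha; acetone stock with 0.4% Triton X-155, water-diluted. Pre: sown loam soil, read at 3 wk. Post: seedling plants, read at 2 wk. Visual 0-9 rating vs untreated.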

[20] = test system: Alopecurus myosuroides; experiment: Herbicidal activity, postemergence test; conditions: post; sprayed onto seedling plants, 800 g of active material per hectare; evaluated 2 weeks after treatment
Outline: as §2

[21] = test system: Hordeum vulgare; experiment: Herbicidal activity, postemergence test; conditions: post; sprayed onto seedling plants, 800 g of active material per hectare; evaluated 2 weeks after treatment
Outline: as §2

[22] = test system: Gossypium hirsutum; experiment: Herbicidal activity, postemergence test; conditions: post; sprayed onto seedling plants, 800 g of active material per hectare; evaluated 2 weeks after treatment
Outline: as §2

[23] = test system: Chenopodium album; experiment: Herbicidal activity, postemergence test; conditions: post; sprayed onto seedling plants, 800 g of active material per hectare; evaluated 2 weeks after treatment
Outline: as §2

[24] = test system: Amaranthus retroflexus; experiment: Herbicidal activity, postemergence test; conditions: post; sprayed onto seedling plants, 800 g of active material per hectare; evaluated 2 weeks after treatment
Outline: as §2

[25] = test system: Galium aparine; experiment: Herbicidal activity, postemergence test; conditions: post; sprayed onto seedling plants, 800 g of active material per hectare; evaluated 2 weeks after treatment
Outline: as §2

[26] = test system: Papaver rhoeas; experiment: Herbicidal activity, postemergence test; conditions: post; sprayed onto seedling plants, 800 g of active material per hectare; evaluated 2 weeks after treatment
Outline: as §2

[27] = test system: Lamium purpureum; experiment: Herbicidal activity, postemergence test; conditions: post; sprayed onto seedling plants, 800 g of active material per hectare; evaluated 2 weeks after treatment
Outline: as §2

[28] = test system: Stellaria media; experiment: Herbicidal activity, postemergence test; conditions: post; sprayed onto seedling plants, 800 g of active material per hectare; evaluated 2 weeks after treatment
Outline: as §2

[29] = test system: Abutilon theophrasti; experiment: Herbicidal activity, postemergence test; conditions: post; sprayed onto seedling plants, 800 g of active material per hectare; evaluated 2 weeks after treatment
Outline: as §2

[30] = test system: Ambrosia artemisifolia; experiment: Herbicidal activity, postemergence test; conditions: post; sprayed onto seedling plants, 800 g of active material per hectare; evaluated 2 weeks after treatment
Outline: as §2

[31] = test system: Ipomoea hederacea; experiment: Herbicidal activity, postemergence test; conditions: post; sprayed onto seedling plants, 800 g of active material per hectare; evaluated 2 weeks after treatment
Outline: as §2

[32] = test system: Zea mays; experiment: Herbicidal activity, postemergence test; conditions: post; sprayed onto seedling plants, 800 g of active material per hectare; evaluated 2 weeks after treatment
Outline: as §2

[33] = test system: Setaria viridis; experiment: Herbicidal activity, postemergence test; conditions: post; sprayed onto seedling plants, 800 g of active material per hectare; evaluated 2 weeks after treatment
Outline: as §2

[34] = test system: Triticum aestivum; experiment: Herbicidal activity, postemergence test; conditions: post; sprayed onto seedling plants, 800 g of active material per hectare; evaluated 2 weeks after treatment
Outline: as §2

[35] = test system: Veronica persica; experiment: Herbicidal activity, postemergence test; conditions: post; sprayed onto seedling plants, 800 g of active material per hectare; evaluated 2 weeks after treatment
Outline: as §2

[36] = test system: Matricaria inodora; experiment: Herbicidal activity, postemergence test; conditions: post; sprayed onto seedling plants, 800 g of active material per hectare; evaluated 2 weeks after treatment
Outline: as §2

Structure (SMILES)	GLXMA control rating (0-9) [1]	ALOMY control rating (0-9) [2]	HORVW control rating (0-9) [3]	GOSHI control rating (0-9) [4]	CHEAL control rating (0-9) [5]	AMARE control rating (0-9) [6]	GALAP control rating (0-9) [7]	PAPRH control rating (0-9) [8]	LAMPU control rating (0-9) [9]	STEME control rating (0-9) [10]	ABUTH control rating (0-9) [11]	AMBEL control rating (0-9) [12]	IPOHE control rating (0-9) [13]	ZEAMX control rating (0-9) [14]	SETVI control rating (0-9) [15]	TRZAW control rating (0-9) [16]	VERPE control rating (0-9) [17]	MATIN control rating (0-9) [18]	GLXMA control rating (0-9) [19]	ALOMY control rating (0-9) [20]	also measured
C[C@H](NC(=O)c1nnc(-c2cc(Cl)cc(Cl)c2)o1)c1ccccc1 [Example 28]	0 (no effect)	0 (no effect)	0 (no effect)	0 (no effect)	0 (no effect)	0 (no effect)	0 (no effect)	0 (no effect)	0 (no effect)	0 (no effect)	0 (no effect)	0 (no effect)	0 (no effect)	0 (no effect)	0 (no effect)	0 (no effect)	0 (no effect)	0 (no effect)	2 (slight effect)	0 (no effect)	HORVW control rating (0-9) [21]: 0 (no effect); GOSHI control rating (0-9) [22]: 0 (no effect); CHEAL control rating (0-9) [23]: 2 (slight effect); AMARE control rating (0-9) [24]: 0 (no effect); GALAP control rating (0-9) [25]: 0 (no effect); PAPRH control rating (0-9) [26]: 0 (no effect); LAMPU control rating (0-9) [27]: 0 (no effect); STEME control rating (0-9) [28]: 0 (no effect); ABUTH control rating (0-9) [29]: 0 (no effect); AMBEL control rating (0-9) [30]: 0 (no effect); IPOHE control rating (0-9) [31]: 0 (no effect); ZEAMX control rating (0-9) [32]: 0 (no effect); SETVI control rating (0-9) [33]: 0 (no effect); TRZAW control rating (0-9) [34]: 0 (no effect); VERPE control rating (0-9) [35]: 0 (no effect); MATIN control rating (0-9) [36]: 0 (no effect)
C[C@H](NC(=O)c1nnc(-c2ccc(F)cc2F)o1)c1ccccc1 [Example 32]	0 (no effect)	3 (moderate effect)	0 (no effect)	0 (no effect)	8 (approaching complete kill)	9 (complete kill)	2 (slight effect)	8 (approaching complete kill)	8 (approaching complete kill)	9 (complete kill)	2 (slight effect)	1 (trace effect)	0 (no effect)	0 (no effect)	9 (complete kill)	0 (no effect)	9 (complete kill)	9 (complete kill)	5 (definite injury)	3 (moderate effect)	HORVW control rating (0-9) [21]: 3 (moderate effect); GOSHI control rating (0-9) [22]: 9 (complete kill); CHEAL control rating (0-9) [23]: 9 (complete kill); AMARE control rating (0-9) [24]: 8 (approaching complete kill); GALAP control rating (0-9) [25]: 6 (herbicidal effect); PAPRH control rating (0-9) [26]: 9 (complete kill); LAMPU control rating (0-9) [27]: 9 (complete kill); STEME control rating (0-9) [28]: 9 (complete kill); ABUTH control rating (0-9) [29]: 8 (approaching complete kill); AMBEL control rating (0-9) [30]: 8 (approaching complete kill); IPOHE control rating (0-9) [31]: 9 (complete kill); ZEAMX control rating (0-9) [32]: 3 (moderate effect); SETVI control rating (0-9) [33]: 9 (complete kill); TRZAW control rating (0-9) [34]: 3 (moderate effect); VERPE control rating (0-9) [35]: 9 (complete kill); MATIN control rating (0-9) [36]: 9 (complete kill)
